In patent publication US4105766A, “4,5-Dihydro-5-oxopyrazolo[1,5-a]quinazoline-3-carboxylic acid derivatives” (Sterling Drug Inc., priority 1977, dated 1978):

How the values were obtained:
[1] = tested on: passive cutaneous anaphylaxis; assay: passive cutaneous anaphylaxis test in rats (anti-allergy); format: in vivo; conditions: for inhibition in vivo at 100 mg/kg / ED50: Rattus norvegicus, po; for inhibition in vivo at 100 mg/kg / % Inhibition (passive cutaneous anaphylaxis) / R (ratio, passive cutaneous anaphylaxis) / ED50: rats; for inhibition in vivo at 100 mg/kg / % Inhibition (passive cutaneous anaphylaxis): standard dose of 100 mg./kg. (p.o.); for R (ratio, passive cutaneous anaphylaxis): R 1.0 to 2.0 inactive, 2.0 to 4.0 weakly active, 4.0 to 8.0 moderately active, >8.0 strongly active; for ED50: passive cutaneous anaphylaxis, read-out: Average Effective Dose50 (AED50)
Excerpt: (1) The inhibition of carrageenin-induced foot edema test essentially described by Winter et al., Proc. Soc. Exp. Biol. and Med. 111, 544 (1962) as modified by Van Arman et al., J. Pharmacol. Exptl. Therap. 150, 328 (1965) and (2) a modification of the inhibition of adjuvant-induced arthritis test described by Pierson, J. Chronic Diseases 16, 863 (1963) and Glenn et al., Am. J. Vet. Res. 26, 1180 (1965), which were used to establish the anti-inflammatory activities of the compounds; and the passive cutaneous anaphylaxis test described by Mielens et al., Int. Arch. Allergy Appl. Immunol. 47, 633-649 (1974) which was used to establish the anti-allergy activity of the compounds.
Results are expressed either in terms of % Inhibition at a standard dose of 100 mg./kg. (p.o.), as an Average Effective Dose50 (AED50), or as a ratio, R, where: [formula]

Trypanosoma brucei = assay: trypanosomicidal test in infected mice; format: in vivo, Trypanosoma brucei (in mice)
Protocol: Trypanosomicidal activity of the compounds of the invention was determined in a test procedure in which albino female mice (Taconic Farms) weighing 20± 2 g. were intraperitoneally injected 3 days prior to initial medication with 0.2 ml. of an inoculum containing 500 Trypanosoma brucei organisms in 0.85% sterile saline. Blood for infecting purposes was obtained via cardiac puncture of a donor mouse previously determined to have a high parasitemia. Test medications to groups of five mice were started 3 days after infection at a time when the animals had begun to develop a rising blood parasitemia. […] Groups of 10 non-medicated infected control mice and five animals medicated with the reference compound LAMPIT® (tetrahydro-3-methyl-4-[(5-nitrofurfurylidene)amino]-2H-1,4-thiazine-1,1-dioxide) were included in each screening test. The test system is based on the survival of animals medicated with the test compound, and those mice alive at the end of 28 days post-infection were recorded as cured. (Non-medicated infected control mice rarely succumb later than 5 to 6 days post-innoculation with T. brucei). A compound was considered active if at least two of five animals survived until the termination of a 28 day post-infection holding period.
(§1) Results obtained in amoebacidal and trypanosomicidal tests on the compounds of the invention against E. criceti and T. brucei, respectively, are given in the table below. Results are expressed as a ratio: Number of Animals Cleared/Total Test Animals.

Entamoeba criceti = assay: amoebacidal test in naturally infected hamsters; format: in vivo, Entamoeba criceti (in hamsters)
Protocol: Anti-parasitic activity of the compounds was shown by the following test procedures. Amoebacidal activity was shown in a test in which 100 or more female hamsters (Sprague-Dawley) weighing between 90 and 130 g. were individually weighed and sorted into groups of five animals each averaging either 100 ± 10 g. or 120 ± 10g. The test compounds (at least 200 mg.) and a reference standard, N,N'-(phenylenedimethylene)-bis[α,α-dichloro-N-(2-ethoxyethyl)acetamide] (FALMONOX®), were dissolved or suspended in 10 percent gelatin. The test compounds and the reference standard were administered to the naturally infected hamsters intragastrically via syringe in equally subdivided doses of 0.5 ml. […] On the fourth day each of the test animals and the five hamsters receiving the reference drug, as well as non-medicated infected control animals, were killed and a portion of the mucus from the wall of the cecum was mixed in a drop of 0.85% sodium chloride. The preparation was examined under low power (100 ×) of a compound microscope for the presence of motile trophozoites of Entamoeba criceti, and when a preparation was determined to be free from trophozoites, a second specimen was taken from another part of the cecum of the same animal and thoroughly examined before the animal was declared cleared of amoebas. […] Results were recorded as a fraction: number of hamsters cleared/number of hamsters treated.
as §1

[2] = tested on: carrageenin-induced foot edema; assay: carrageenin-edema test (CE), inhibition of carrageenin-induced foot edema in rats; format: in vivo; conditions: Rattus norvegicus, read-out: % Inhibition C.E.; for inhibition in vivo at 324 µmol/kg: dose .324 mmole/kg.; for inhibition in vivo at 80 µmol/kg: dose .08 mmole/kg.
Protocol: (1) The inhibition of carrageenin-induced foot edema test essentially described by Winter et al., Proc. Soc. […] Therap. […] J. Vet. […] Arch. Allergy Appl. Immunol.
Here, and elsewhere in other tables which follow, compounds are identified by the Example number above where their preparations are recorded. For purposes of comparison, data are also given for the reference compound 4,5-dihydro-5-oxopyrazolo[1,5-a]quinazoline-3-carboxylic acid disclosed by Wright, ibid., identified here and elsewhere in the tables which follow as "Ref.".

[3] = tested on: adjuvant-induced arthritis; assay: adjuvant arthritis test (AA), inhibition of adjuvant-induced arthritis in rats; format: in vivo; conditions: Rattus norvegicus; for inhibition in vivo at 80 µmol/kg: dose .08 mmole/kg.; for inhibition in vivo at 324 µmol/kg: dose .324 mmole/kg.; for inhibition in vivo at 20 µmol/kg: dose .02 mmole/kg.
[4] = dose 200 mg./kg. p.o. 2×/day × 4

## CCOC(=O)c1cnn2c1[nH]c(=O)c1cc(C)ccc12 [Example 1A]
[1]
  inhibition in vivo at 100 mg/kg: 63%

## CCOC(=O)c1cnn2c1[nH]c(=O)c1ccc(C)cc12 [Example 1B]
[1]
  % Inhibition (passive cutaneous anaphylaxis): Inac.

## CCOC(=O)c1cnn2c1[nH]c(=O)c1cc(Cl)ccc12 [Example 1C]
[1]
  inhibition in vivo at 100 mg/kg: 48%

## CCOC(=O)c1cnn2c1[nH]c(=O)c1cc(F)ccc12 [Example 1E]
[1]
  % Inhibition (passive cutaneous anaphylaxis): Inac.

## CCOC(=O)c1cnn2c3ccccc3c(=O)n(C)c12 [Example 2, ethyl 4-methyl-4,5-dihydro-5-oxopyrazolo[1,5-a]quinazoline-3-carboxylate]
Trypanosoma brucei; dose 50 mg./kg. p.o., i.p.
  No. Cleared/No. Tested, Tryp.: 0/5
Trypanosoma brucei; dose 200 mg./kg. p.o., i.p.
  No. Cleared/No. Tested, Tryp.: 2/5

## CCOC(=O)c1cnn2c3ccc(C)cc3c(=O)n(C)c12 [Example 2F]
[1]
  inhibition in vivo at 100 mg/kg: 6%
  % Inhibition (passive cutaneous anaphylaxis): Inac.
Entamoeba criceti; dose 25 mg./kg.
  No. Cleared/No. Tested, Amoeba: 0/5
Entamoeba criceti; dose 100 mg./kg.
  No. Cleared/No. Tested, Amoeba: 5/5

## CCOC(=O)c1cnn2c3cc(C)ccc3c(=O)n(C)c12 [Example 2G]
[1]
  inhibition in vivo at 100 mg/kg: 46%

## CCOC(=O)c1cnn2c3ccc(Cl)cc3c(=O)n(C)c12 [Example 2H]
[1]
  inhibition in vivo at 100 mg/kg: 32%
Entamoeba criceti; dose 100 mg./kg.
  No. Cleared/No. Tested, Amoeba: 2/4

## CCOC(=O)c1cnn2c3ccc(F)cc3c(=O)n(C)c12 [Example 2K]
[1]
  R (ratio, passive cutaneous anaphylaxis): 3.0

## CCOC(=O)c1cnn2c3ccc([N+](=O)[O-])cc3c(=O)n(C)c12 [Example 4, ethyl 4-methyl-7-nitro-4,5-dihydro-5-oxopyrazolo[1,5-a]quinazoline-3-carboxylate]
Entamoeba criceti; dose 100 mg./kg.
  No. Cleared/No. Tested, Amoeba: 2/4

## Cn1c(=O)c2ccccc2n2ncc(C(=O)O)c12 [Example 7, 4-methyl-4,5-dihydro-5-oxopyrazolo[1,5-a]quinazoline-3-carboxylic acid]
[2]
  inhibition in vivo at 324 µmol/kg: 11%
[3]
  inhibition in vivo at 80 µmol/kg: 16%
  inhibition in vivo at 324 µmol/kg: 39%
[1]
  inhibition in vivo at 100 mg/kg: 68%
Trypanosoma brucei; dose 100 mg./kg. p.o. 2×/day × 4
  No. Cleared/No. Tested, Tryp.: 0/5
Trypanosoma brucei; [4]
  No. Cleared/No. Tested, Tryp.: 5/5

## CCn1c(=O)c2ccccc2n2ncc(C(=O)O)c12 [Example 7A]
[2]
  inhibition in vivo at 324 µmol/kg: 33%
[3]
  inhibition in vivo at 80 µmol/kg: 27%
[1]
  ED50: 12 mg/kg
  inhibition in vivo at 100 mg/kg: 81%

## C=CCn1c(=O)c2ccccc2n2ncc(C(=O)O)c12 [Example 7B, 4-(2-propenyl)-4,5-dihydro-5-oxopyrazolo[1,5-a]quinazoline-3-carboxylic acid]
[2]
  inhibition in vivo at 80 µmol/kg: 38%
  inhibition in vivo at 324 µmol/kg: 73%
[3]
  inhibition in vivo at 20 µmol/kg: 18%
  inhibition in vivo at 80 µmol/kg: 34%
  inhibition in vivo at 324 µmol/kg: 84%
[1]
  inhibition in vivo at 100 mg/kg: 40%

## O=C(O)c1cnn2c3ccccc3c(=O)n(CC3CC3)c12 [Example 7C]
[2]
  inhibition in vivo at 80 µmol/kg: 25%
  inhibition in vivo at 324 µmol/kg: 33%
[3]
  inhibition in vivo at 324 µmol/kg: 74%
[1]
  R (ratio, passive cutaneous anaphylaxis): 6.5

## C=C(C)Cn1c(=O)c2ccccc2n2ncc(C(=O)O)c12 [Example 7D]
[2]
  inhibition in vivo at 80 µmol/kg: 15%
  inhibition in vivo at 324 µmol/kg: 24%
[3]
  inhibition in vivo at 324 µmol/kg: 43%
[1]
  R (ratio, passive cutaneous anaphylaxis): 4.6

## CC(C)=CCn1c(=O)c2ccccc2n2ncc(C(=O)O)c12 [Example 7E]
[2]
  inhibition in vivo at 80 µmol/kg: 3%
  inhibition in vivo at 324 µmol/kg: 4%
[3]
  inhibition in vivo at 324 µmol/kg: 34%
[1]
  R (ratio, passive cutaneous anaphylaxis): 3.8

## Cc1ccc2c(c1)c(=O)[nH]c1c(C(=O)O)cnn12 [Example 7F]
[1]
  inhibition in vivo at 100 mg/kg: 65%

## Cc1ccc2c(=O)[nH]c3c(C(=O)O)cnn3c2c1 [Example 7G]
[1]
  ED50: ~15 mg/kg

## Cc1ccc2c(c1)c(=O)n(C)c1c(C(=O)O)cnn21 [Example 7H]
[1]
  ED50: 34 mg/kg
  inhibition in vivo at 100 mg/kg: 73%
Trypanosoma brucei; [4]
  No. Cleared/No. Tested, Tryp.: 10/10
Trypanosoma brucei; dose 200 mg./kg. p.o., i.p.
  No. Cleared/No. Tested, Tryp.: 4/5

## O=C(O)c1cnn2c1[nH]c(=O)c1cc(Cl)ccc12 [Example 7J]
[1]
  ED50: 5 to 10 mg/kg
  inhibition in vivo at 100 mg/kg: 92%

## Cn1c(=O)c2cc(Cl)ccc2n2ncc(C(=O)O)c12 [Example 7K]
[1]
  ED50: 9 mg/kg
Trypanosoma brucei; dose 200 mg./kg. p.o., i.p.
  No. Cleared/No. Tested, Tryp.: 2/4

## O=C(O)c1cnn2c1[nH]c(=O)c1ccc(Cl)cc12 [Example 7L]
[1]
  inhibition in vivo at 100 mg/kg: 74%
Entamoeba criceti; dose 100 mg./kg.
  No. Cleared/No. Tested, Amoeba: 2/5

## Cn1c(=O)c2ccc(Cl)cc2n2ncc(C(=O)O)c12 [Example 7M]
[1]
  inhibition in vivo at 100 mg/kg: 56%
Trypanosoma brucei; dose 200 mg./kg. p.o., i.p.
  No. Cleared/No. Tested, Tryp.: 5/5

## Cn1c(=O)c2cc(F)ccc2n2ncc(C(=O)O)c12 [Example 7P]
[2]
  inhibition in vivo at 324 µmol/kg: 0%
[1]
  % Inhibition (passive cutaneous anaphylaxis): Inac.
Entamoeba criceti; dose not given
  Amoeba (activity in words): Inac. (inactive when zero or one of the five hamsters were trophozoite free)
Trypanosoma brucei; dose 200 mg./kg. p.o., i.p.
  No. Cleared/No. Tested, Tryp.: 3/5

## C=CCn1c(=O)c2cc(F)ccc2n2ncc(C(=O)O)c12 [Example 7Q]
[2]
  inhibition in vivo at 80 µmol/kg: 0%
  inhibition in vivo at 324 µmol/kg: 4%
[3]
  inhibition in vivo at 324 µmol/kg: 72%

## Cn1c(=O)c2cc(Br)ccc2n2ncc(C(=O)O)c12 [Example 7R]
[1]
  inhibition in vivo at 100 mg/kg: 63%

## Cn1c(=O)c2cc([N+](=O)[O-])ccc2n2ncc(C(=O)O)c12 [Example 7S]
[1]
  ED50: 37 mg/kg

## Cn1c(=O)c2cc(NC(=S)Nc3ccccc3)ccc2n2ncc(C(=O)O)c12 [Example 7T]
Entamoeba criceti; dose 50 mg./kg.
  No. Cleared/No. Tested, Amoeba: 0/3
Entamoeba criceti; dose 100 mg./kg.
  No. Cleared/No. Tested, Amoeba: 3/3
Trypanosoma brucei; dose not given
  Tryp. (activity in words): Inac. (inactive if none of the animals survived to the end of the test)

## C=CCn1c(=O)c2ccccc2n2ncc(C(=O)O)c12 [Example 8, sodium 4-(2-propenyl)-4,5-dihydro-5-oxopyrazolo[1,5-a]quinazoline-3-carboxylate]
[2]; dose .09 mmole/kg.
  inhibition in vivo at 90 µmol/kg: 20%
[2]; dose .36 mmole/kg.
  inhibition in vivo at 360 µmol/kg: 31%
[3]
  inhibition in vivo at 20 µmol/kg: 29%
  inhibition in vivo at 80 µmol/kg: 47%
  inhibition in vivo at 324 µmol/kg: 80%

## Cn1c(=O)c2ccccc2n2ncc(C(=O)OCOC(=O)C(C)(C)C)c12 [Example 9, pivaloyloxymethyl 4-methyl-4,5-dihydro-5-oxopyrazolo[1,5-a]quinazoline-3-carboxylate]
[1]
  R (ratio, passive cutaneous anaphylaxis): 6.7

## Cn1c(=O)c2cc(N)ccc2n2ncc(C(=O)O)c12 [Example 10, 7-amino-4-methyl-4,5-dihydro-5-oxopyrazolo[1,5-a]quinazoline-3-carboxylic acid]
Entamoeba criceti; dose 50 mg./kg.
  No. Cleared/No. Tested, Amoeba: 0/5
Entamoeba criceti; dose 100 mg./kg.
  No. Cleared/No. Tested, Amoeba: 5/5

## O=C(O)c1cnn2c1[nH]c(=O)c1ccccc12 [Ref., 4,5-dihydro-5-oxopyrazolo[1,5-a]quinazoline-3-carboxylic acid]
[2]
  inhibition in vivo at 80 µmol/kg: 0%
  inhibition in vivo at 324 µmol/kg: 7%
[3]
  inhibition in vivo at 20 µmol/kg: 26%
  inhibition in vivo at 80 µmol/kg: 31%
  inhibition in vivo at 324 µmol/kg: 10%
[1]
  ED50: 2 to 15 mg/kg
  inhibition in vivo at 100 mg/kg: 62%
[1]; rat, in vivo
  anti-allergic activity (in words): possesses anti-allergic activity
